Results published in PubChem BioAssay (NCI).
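Dose response: 5 concentrations. Exposure: 48 h. Format: 96-well plates. Endpoint: linear interpolation; highest concentration if not reached. TGI: concentration producing complete growth inhibition.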 Where a SMILES comes first, the peptide text is derived from it. The star is where a group is joined. Bn = c1ccc(C*)cc1

How the values were obtained:
Test in all cases: DTP human tumour cell line panel, 48 h
HCT-15 colon = test system: HCT-15 colon
LOX IMVI melanoma = test system: LOX IMVI melanoma
RPMI-8226 leukemia = test system: RPMI-8226 leukemia
SK-MEL-5 melanoma = test system: SK-MEL-5 melanoma
SK-OV-3 ovarian = test system: SK-OV-3 ovarian
SW-620 colon = test system: SW-620 colon
T-47D breast = test system: T-47D breast
TK-10 renal = test system: TK-10 renal
NCI-H460 lung = test system: NCI-H460 lung
OVCAR-4 ovarian = test system: OVCAR-4 ovarian

Structure (SMILES)	TGI (HCT-15 colon) [µM]	TGI (LOX IMVI melanoma) [µM]	TGI (RPMI-8226 leukemia) [µM]	TGI (SK-MEL-5 melanoma) [µM]	TGI (SK-OV-3 ovarian) [µM]	TGI (SW-620 colon) [µM]	TGI (T-47D breast) [µM]	TGI (TK-10 renal) [µM]	TGI (NCI-H460 lung) [µM]	TGI (OVCAR-4 ovarian) [µM]
O=C(O)CSC(NC(=O)C(C(F)(F)F)C(F)(F)F)(C(F)(F)F)C(F)(F)F	> 100	> 100	> 100	> 100	> 100	> 100	> 100	> 100		
CN(C)P(=O)(Oc1occc1C(O)Cc1ccccc1)N(C)C (stereo not given)	> 100	> 100	> 100	> 100	> 100	> 100	> 100	> 100	> 100	> 100
C[C@]1(S(=O)(=O)c2ccccc2)C[C@H]2N(Cc3ccccc3)[C@@H]1CCC21OCCO1	> 100	> 100		> 100	> 100	> 100	> 100		> 100	> 100
CC1=CC(=O)CC2(C)CCC(C(C)CC(=O)CC(C)C)CC12 (stereo not given)	> 100	34.8	60.8	36.4		46		> 100	> 100	> 100
COc1cc(C=C2C(=O)NC(=S)NC2=O)cc(OC)c1OC	> 100	> 100	> 100	> 100	> 100	> 100	> 100	> 100	> 100	> 100
OCC(O)C(O)C(O)/C=N/Nc1nc(O)c(/C=C2\C=Nc3ccccc32)[nH]1 (stereo not given)	> 100	> 100	> 100	> 100	> 100	> 100	> 100	> 100	> 100	> 100
COC(=O)C1OC(O[C@H]2CC[C@]3(C)[C@H]4CC=C5[C@@H]6CC(C)(C)CC[C@]6(C(=O)OC6OCC(O)C(O)C6OC6OC(C)C(OC7OCC(OC8OCC(O)C(O)C8O)C(O)C7O)C(O)C6O)[C@H](O)C[C@@]5(C)[C@]4(C)CC[C@H]3C2(C)C)C(O)C(O)C1O (stereo not given in full)	22.7	22	> 50.7	11.6	28.1	11.8	13.2	22.5	32.5	21.6
COC(=O)c1cc2c(cc1CC(Cc1ccc3c(c1)CCC3)C(=O)OC)CCC2 (stereo not given)	> 100	> 100	66.8	67.6	> 100	> 100	> 100	> 100	> 100	81.8
COc1cc2c(cc1OC)C13CC[N+]4(C)CC5=CCOC6CC(=O)N2C1C6C5CC34[O-] (stereo not given)	> 100	> 100	> 100	> 100	> 100	> 100	> 100	> 100	> 100	> 100
COC(=O)[C@H](Cc1ccccc1)NC(=O)c1ccc(CNC(=O)/C=C/c2cccc(Oc3ccccc3)c2)cc1	> 100		> 100	36.9	> 100	> 100	> 100	92.5	> 100	> 100
COC(=O)C(CC(C)C)NC(=O)C(N)Cc1ccc(OCc2ccccc2)cc1 (stereo not given) (H-Tyr(Bn)-Leu-OMe; configuration not given here)	> 10	> 10	> 10	> 10	> 10	> 10	> 10	> 10	> 10	> 10
CC(C)(C)OC(=O)C1C(=O)NC(=O)CC1C(COCc1ccccc1)OCc1ccccc1 (stereo not given)	54.5	34.7	62.6	31.1		65.1	38.7	> 100		
Nc1nc(Nc2ccc(Cl)cc2)sc1C(=O)c1cccs1	> 100	> 100	> 100	> 100	50	> 100	> 100	36.3	> 100	> 100
O=C1CC(Sc2nc3ccc(I)cc3c(=O)n2Cc2ccccc2)C(=O)NN1 (stereo not given)	28.8	11.2	45.5	29.7	29.7	35.2	34.3	30.5	57.2	36.8
Cc1c(C#N)c(N)n(C2OCC(O)C(O)C2O)c(=S)c1C#N (stereo not given)	> 100	> 100	> 100	> 100	> 100	> 100	> 100	> 100	> 100	
CC1(C)[C@@H](Cn2cnc3c(Cl)nc(N)nc32)CC[C@@]1(C)CO	> 100	80.9	89.2	47.3	> 100	> 100	> 100	> 100		> 100
O=C(CCCN1CCC2(CC1)C(=NC1CCCCC1)NC(=O)N2c1ccccc1)c1ccc(F)cc1	> 100	30	49.5	37.9		> 100	76.4	63.2	54.5	> 100
CCOC(=O)[C@@H]1ON2O[C@@H](OC3CCCC3(c3ccccc3)c3ccccc3)C[C@H]3OC(=O)[C@@H]1C32 (stereo not given in full)	60.7	> 100	90.6	> 100	> 100	64.5	69.1	43.6	> 100	
CC(C)CCn1nc(N)c2nc3ccccc3nc21		> 100	> 100		> 100	> 100		> 100	> 100	> 100
S=C1CC(c2ccccc2)Sc2ccc(Cl)cc2N1 (stereo not given)	> 100	> 100	> 100	> 100	> 100		> 100	> 100	> 100	> 100
CC/C(Cl)=N\OC(=O)Nc1ccc(F)c([N+](=O)[O-])c1	19.8	> 48.9	> 25.3	29.5	34.5	33.6		26.1	> 100	14.7
O=C(CCc1cccc(O)c1)NCCCNC(=O)CCc1cccc(O)c1	> 100	> 100	> 100	> 100	> 100	> 100	> 100		> 100	> 100
